Laboratory results reported in US6495580B1, “Compounds, compositions and methods for treating or preventing pneumovirus infection and associated diseases” (ViroPharma Incorporated, priority 1998, dated 2002).
Read-outs that look alike come from different tables or passages of the source.

Experiments:
Assay type in all cases: cell-based
bovine RSV = experiment: Cell culture assay for inhibition of pneumovirus replication, BRSV; conditions: protection from cytopathic effect
Protocol: (§1) The replication of many viruses may be quantitatively assessed in the laboratory in various cell or tissue culture systems. Such in vitro culture methodologies are available and useable by those skilled in the art for the propagation and quantitative measurement of the replication of pneumoviruses. The following procedure was used for the in vitro quantitative measure of RSV replication.
(§2) Using the procedure described in this example, compounds of the present invention were evaluated for their ability to inhibit the replication of the virus in cell culture. By adding compounds at various concentrations to the culture medium, a dose response effect of the compound on virus replication was determined. A useful quantitative measure of the inhibition of RSV replication in this assay is the concentration of the compound at which virus replication in cell culture is inhibited by 50% in comparison to that observed in the absence of the compound (50% Inhibitory Concentration, IC50). In the case of RSV, IC50 values are defined as the concentration of compound that protected 50% of the cell monolayer. from virus-induced cytopathic effect (syncytia formation).
(§3) Anti-pneumovirus compounds of the invention were screened for antiviral activity against RSV (strain Long) on cultured HEp2 cells. Standard 96-well culture plates were seeded with 4×10^4 HEp2 cells in 200 μL of Minimal Essential Medium with Earles salts (EMEM) supplemented with 10% fetal bovine serum (FBS). Twenty-four to 30 hours later, the cells were infected with a dilution of RSV in Medium 199 (GIBCO/BRL) with 5% FBS that had been titrated to yield>85% destruction of the cell monolayer in 60 hours. After 1 hour at […], compounds were added to wells of the plate in a final DMSO concentration of 0.5% as a series of 10 two-fold dilutions of the compound. Virus control wells (VC, no test compound) and cell culture control wells (CC, no virus, no test compound) were also included on each plate. Plates were incubated in a humidified atmosphere at 37° C. and 5% carbon dioxide. After 60 hours, 100 μL of a 5% solution of glutaraldehyde in water was added to each well, and the wells were incubated at room temperature for 1 hour. The fixative was removed, and the cells were stained with a 0.1% solution of crystal violet in water for 15-30 minutes. After rinsing and drying the plates, the optical density of the wells was measured at 570 nm (OD570).
(§4) To determine IC50 values for the test compounds,the mean value of the OD570 readings of the virus control wells (VC) on a plate was substracted from the OD570 readings of all wells on that plate. The IC50 values were then calculated according to the following formula:
(§5) IC50=[(Y—B)/(A—B)]×(H—L)+L
(§6) where Y represents the mean OD570 reading of the cell control wells (CC) divided by 2; B represents the mean OD570 reading of wells of the compound dilution nearest to and below Y; A represents the mean OD570 reading of wells of the compound dilution nearest to and above Y; L represents the compound concentration at B; and H represents the compound concentration at A.
(§7) A similar assay is useful for various strains of human RSV, including subtype A and subtype B viruses, as well as other pneumoviruses.

human RSV subtype A = experiment: Cell culture assay for inhibition of pneumovirus replication (protection from virus-induced cytopathic effect), RSV-A
Protocol: as §1, §2, §3, §4, §5, §6, §7

human RSV subtype B = experiment: Cell culture assay for inhibition of pneumovirus replication, RSV-B; conditions: protection from cytopathic effect
Protocol: as §1, §2, §3, §4, §5, §6, §7

ovine RSV = experiment: Cell culture assay for inhibition of pneumovirus replication, ORSV; conditions: protection from cytopathic effect
Protocol: as §1, §2, §3, §4, §5, §6, §7

normal cells = experiment: MTT cytotoxicity assay; conditions: highest compound concentration giving optical density ≧75% of control, 68 hours incubation
Protocol: This assay measures cell viability, and therefore cytotoxicity, by quantitatively detecting the in situ reduction of 3-(4,5-dimethylthiazol-2-yl)-2,5-diphenyltetrazolium bromide (MTT) by viable cells. Cells are seeded in 96-well plates in DMEM containing 5% FBS at a density of 4×10^3 cells per well. After incubation for 4 hours at 37° C. and 5% CO2, 2-fold serial dilutions of compound in 1% DMSO (or solvent alone) are added to quadruplicate wells and the plates are incubated for an additional 68 hours at 37° C. and 5% CO2, which is equivalent to 3 to 4 cell doublings. The culture medium is removed, and the cells are treated with 1 mg/ml of MTT in phosphate-buffered saline, pH 7.2 for 4 hours at 37° C. and 5% CO2. After removal of the unreduced MTT, the reduced blue formazan crystals produced by the viable cells are solubilized by the addition of 0.04N HCl in isopropanol. The optical density at 570 nm (OD570) of each well is read using a suitable microplate reader. Cell viability is expressed as the percentage of optical density for compound-treated cells relative to the optical density of solvent alone-treated control wells. The highest compound concentration resulting in an optical density of≧75% of the control is represented as the cellular cytotoxicity value (CC75).

goat RSV = experiment: Cell culture assay for inhibition of pneumovirus replication, GRSV; conditions: protection from cytopathic effect
Protocol: as §1, §2
Anti-pneumovirus compounds of the invention were screened for antiviral activity against RSV (strain Long) on cultured HEp2 cells. […] After rinsing and drying the plates, the optical density of the wells was measured at 570 nm (OD570).
To determine IC50 values for the test compounds,the mean value of the OD570 readings of the virus control wells (VC) on a plate was substracted from the OD570 readings of all wells on that plate. The IC50 values were then calculated according to the following formula: […]
as §6, with “A. […]” for “A.”

[1] = Activity against human RSV subtype A (Table 2), values marked 2: protection achieved only 70-90% at highest concentrations tested, read-out: IC50
[2] = human RSV subtype A, concentration protecting 50% of cell monolayer from virus-induced cytopathic effect, HEp2 cells, 60 hours, read-out: IC50 RSV-A
[3] = human respiratory syncytial virus

SMILES | IC50 (bovine RSV) [nM] | IC50 (human RSV subtype A; [1]) [nM] | IC50 (human RSV subtype A; [2]) [nM] | IC50 (human RSV subtype B) [nM] | IC50 (bovine RSV; Bovine orthopneumovirus) [nM] | IC50 (human RSV subtype A; human respiratory syncytial virus, HEp-2, human RSV subtype A, concentration protecting 50% of cell monolayer from virus-induced cytopathic effect, HEp2 cells, 60 hours, read-out: IC50 RSV-A) [nM] | IC50 (human RSV subtype A; human respiratory syncytial virus, Activity against human RSV subtype A (Table 2), values marked 2: protection achieved only 70-90% at highest concentrations tested, read-out: IC50) [nM] | IC50 (human RSV subtype B; [3]) [nM] | IC50 (ovine RSV; [3]) [nM] | IC50 (ovine RSV) [nM] | CC75 (normal cells) [nM] | IC50 (goat RSV) [nM]
Cc1nnnn1/N=C/c1ccc(O)c(C(c2ccc(O)cc2)c2cc(/C=N/n3nnnc3C)ccc2O)c1 [Example 6, 5,5′-Bis[1-(((5-methyl-1H-tetrazolyl)imino)methyl)]-2,2′,4″-methylidynetrisphenol] | 1 | 1 | 1 | 2 | – | – | – | – | – | 1 | 3100 | 1
Nc1nnn(N=Cc2ccc(C(c3ccc(O)cc3)c3ccc(C=Nn4nnc(N)n4)cc3O)c(O)c2)n1 (stereo not drawn) [Example 5, 5,5′-Bis[2-(((5-amino-2H-tetrazolyl)imino)methyl)]-2,2′,4″-methylidynetrisphenol] | 1700 | 90 | 90 | 1900 | – | – | – | – | – | 1200 | >50000 | –
Nc1nnnn1N=Cc1ccc(O)c(C(c2ccc(O)cc2)c2cc(C=Nn3nnnc3N)ccc2O)c1 (stereo not drawn) [Example 1, 5,5′-Bis[1-(((5-amino-1H-tetrazolyl)imino)methyl)]2,2′,4″-methylidynetrisphenol] | 3 | 1 | 1 | 8 | – | – | – | – | – | 2 | >12500 | 1
Nc1nncn1N=Cc1ccc(O)c(C(c2ccc(O)cc2)c2cc(C=Nn3cnnc3N)ccc2O)c1 (stereo not drawn) [Example 4, 5,5′-Bis[4-(((3-amino-4H-1,2,4-triazolyl)imino)methyl)]-2,2′,4″-methylidyne trisphenol] | 270 | 110 | 110 | 150 | – | – | – | – | – | – | 18800 | –
Nc1nnnn1N=Cc1ccc(C(c2ccccc2)c2ccc(C=Nn3nnnc3N)cc2O)c(O)c1 (stereo not drawn) [Example 7, 5,5′-Bis[1-(((5-amino-1H-tetrazolyl)imino)methyl)]-2,2′-benzylidenebisphenol] | – | 1 | 1 | – | – | – | – | – | – | – | >6300 | –
Nc1nnnn1N=Cc1ccc(O)c(Cc2cc(C=Nn3nnnc3N)ccc2O)c1 [Example 8] | 16200 | 370 | 370 | 47300 | – | – | – | – | – | – | 9400 | –

More lines, main results first:

IC50 (bovine RSV) [nM] | IC50 (human RSV subtype A; [1]) [nM] | IC50 (human RSV subtype A; [2]) [nM] | IC50 (human RSV subtype B) [nM] | IC50 (bovine RSV; Bovine orthopneumovirus) [nM] | IC50 (human RSV subtype A; human respiratory syncytial virus, HEp-2, human RSV subtype A, concentration protecting 50% of cell monolayer from virus-induced cytopathic effect, HEp2 cells, 60 hours, read-out: IC50 RSV-A) [nM] | IC50 (human RSV subtype A; human respiratory syncytial virus, Activity against human RSV subtype A (Table 2), values marked 2: protection achieved only 70-90% at highest concentrations tested, read-out: IC50) [nM] | IC50 (human RSV subtype B; [3]) [nM] | IC50 (ovine RSV; [3]) [nM] | SMILES | IC50 (ovine RSV) [nM] | CC75 (normal cells) [nM] | IC50 (goat RSV) [nM]
10 | 50 | 50 | 460 | – | – | – | – | – | Nc1ncnn1N=Cc1ccc(O)c(C(c2ccc(O)cc2)c2cc(C=Nn3ncnc3N)ccc2O)c1 (stereo not drawn) [Example 3, 5,5′-Bis[1-(((5-amino-1H-1,2,4 triazolyl)imino)methyl)]-2,2′, 4″t-methylidyne trisphenol] | 170 | 12500 | –
– | – | – | – | 7500 | 24300 | 24300 | 17700 | 15500 | NC(=O)c1ncn([C@@H]2O[C@H](CO)[C@@H](O)[C@H]2O)n1 [Ribavirin, 1-beta-D-ribofuranosyl-1H-1,2,4-triazole-3-carboxamide, reference compound] | – | 9400 | 3300
1 | 1 | 1 | 8 | – | – | – | – | – | COc1ccc(C(c2ccc(C=Nn3nnnc3N)cc2O)c2ccc(C=Nn3nnnc3N)cc2O)cc1 (stereo not drawn) [Example 2, 5,5′-Bis[1-(((5-amino-1H-tetrazolyl)imino)methyl)]-4″-methoxyphenyl-2,2′-benzylidenebisphenol] | – | >150000 | –
